Assay results taken from US20260042731A1, “(2,4-DICHLOROPHENOXY)ACETIC ACID ANALOGS” (CORTEVA AGRISCIENCE LLC, priority 2022, published 2026).
Read-outs that look alike come from different tables or passages of the source.

Columns and labels:
[1] = Volatility of compounds measured by thermogravimetric analysis (TGA); format: physicochemical
[2] = test system: Chenopodium album (CHEAL), common lambsquarters; assay: Postemergence herbicide evaluation, growth of Chenopodium album (CHEAL); format: in vivo; details: Chenopodium album, post-emergence, percent reduction in plant size vs untreated control, read-out: Ave. CHEAL; for pest or weed control at 280 g/ha: 280 g ae/ha; for pest or weed control at 560 g/ha: 560 g ae/ha
[3] = test system: glyphosate resistant Conyza canadensis (L.) (ERICA), horseweed; assay: Postemergence herbicide evaluation, growth of Conyza canadensis (ERICA); format: in vivo; details: Erigeron canadensis, post-emergence, percent reduction in plant size vs untreated control, read-out: Ave. ERICA; for pest or weed control at 280 g/ha: 280 g ae/ha; for pest or weed control at 560 g/ha: 560 g ae/ha
[4] = test system: Ambrosia artemisiifolia (AMBEL), common ragweed; assay: Postemergence herbicide evaluation, growth of Ambrosia artemisiifolia (AMBEL); format: in vivo; details: Ambrosia artemisiifolia, post-emergence, percent reduction in plant size vs untreated control, read-out: AVE. AMBEL; for pest or weed control at 280 g/ha: 280 g ae/ha; for pest or weed control at 560 g/ha: 560 g ae/ha
[5] = test system: Abutilon theophrasti (ABUTH), velvetleaf; assay: Postemergence herbicide evaluation, growth of Abutilon theophrasti (ABUTH); format: in vivo; details: Abutilon theophrasti, post-emergence, percent reduction in plant size vs untreated control, read-out: AVE. ABUTH; for pest or weed control at 280 g/ha: 280 g ae/ha; for pest or weed control at 560 g/ha: 560 g ae/ha
[6] = test system: weeds ABUTH, AMATA, AMBEL, CHEAL, ERICA; assay: Postemergence herbicide evaluation, overall average % weed control across ABUTH, AMATA, AMBEL, CHEAL and ERICA; format: in vivo; details: post-emergence, average over five weeds, read-out: Overall Ave % Weed Control; for pest or weed control at 280 g/ha: 280 g ae/ha; for pest or weed control at 560 g/ha: 560 g ae/ha
[7] = test system: Amaranthus rudis (AMATA), tall water hemp; assay: Postemergence herbicide evaluation, growth of Amaranthus rudis (AMATA); format: in vivo; details: Amaranthus tuberculatus, post-emergence, percent reduction in plant size vs untreated control, read-out: Ave. AMATA; for pest or weed control at 280 g/ha: 280 g ae/ha; for pest or weed control at 560 g/ha: 560 g ae/ha

Row | SMILES | TGA Data (rate of weight loss, volatility) [1] [µg/min] | pest or weed control at 280 g/ha ([2]; 168 h, 7 DAA) [%] | pest or weed control at 280 g/ha ([2]; 336 h, 14 DAA) [%] | pest or weed control at 560 g/ha ([2]; 336 h, 14 DAA) [%] | pest or weed control at 280 g/ha ([2]; 504 h, 21 DAA) [%] | pest or weed control at 560 g/ha ([2]; 504 h, 21 DAA) [%] | pest or weed control at 280 g/ha ([3]; 168 h, 7 DAA) [%] | pest or weed control at 280 g/ha ([3]; 336 h, 14 DAA) [%] | pest or weed control at 560 g/ha ([3]; 336 h, 14 DAA) [%] | pest or weed control at 280 g/ha ([3]; 504 h, 21 DAA) [%] | pest or weed control at 560 g/ha ([3]; 504 h, 21 DAA) [%] | pest or weed control at 280 g/ha ([4]; 168 h, 7 DAA) [%] | pest or weed control at 280 g/ha ([4]; 336 h, 14 DAA) [%] | pest or weed control at 560 g/ha ([4]; 336 h, 14 DAA) [%] | pest or weed control at 280 g/ha ([4]; 504 h, 21 DAA) [%] | pest or weed control at 560 g/ha ([4]; 504 h, 21 DAA) [%] | pest or weed control at 280 g/ha ([5]; 168 h, 7 DAA) [%] | pest or weed control at 280 g/ha ([5]; 336 h, 14 DAA) [%] | pest or weed control at 560 g/ha ([5]; 336 h, 14 DAA) [%] | pest or weed control at 280 g/ha ([5]; 504 h, 21 DAA) [%] | other results
1 | O=C(COc1ccc(Cl)cc1Cl)Oc1cccnc1 [Compound E9] | 0.6748 | 75 | 96.5 | 99 | 90 | 93.5 | 82.5 | 99.5 | 100 | 99 | 100 | 80 | 90 | 97.5 | 100 | 100 | 57.5 | 75 | 98 | 88.5 | pest or weed control at 660 g/ha ([2]; 168 h, 660 g ae/ha, 7 DAA): 80%; pest or weed control at 660 g/ha ([3]; 168 h, 660 g ae/ha, 7 DAA): 77.5%; pest or weed control at 660 g/ha ([4]; 168 h, 660 g ae/ha, 7 DAA): 87.5%; pest or weed control at 660 g/ha ([5]; 168 h, 660 g ae/ha, 7 DAA): 82.5%; pest or weed control at 560 g/ha ([5]; 504 h, 21 DAA): 99.5%; pest or weed control at 280 g/ha ([6]; 168 h, 7 DAA): 74.5%; pest or weed control at 660 g/ha ([6]; 168 h, 660 g ae/ha, 7 DAA): 84%; pest or weed control at 280 g/ha ([6]; 336 h, 14 DAA): 89.2%; pest or weed control at 560 g/ha ([6]; 336 h, 14 DAA): 96.4%; pest or weed control at 280 g/ha ([6]; 504 h, 21 DAA): 94%; pest or weed control at 560 g/ha ([6]; 504 h, 21 DAA): 97.4%; pest or weed control at 280 g/ha ([7]; 168 h, 7 DAA): 77.5%; pest or weed control at 660 g/ha ([7]; 168 h, 660 g ae/ha, 7 DAA): 92.5%; pest or weed control at 280 g/ha ([7]; 336 h, 14 DAA): 85%; pest or weed control at 560 g/ha ([7]; 336 h, 14 DAA): 87.5%; pest or weed control at 280 g/ha ([7]; 504 h, 21 DAA): 92.5%; pest or weed control at 560 g/ha ([7]; 504 h, 21 DAA): 94%
2 | O=C(COc1ccc(Cl)cc1Cl)Oc1ccccn1 [Compound E11] | 0.4827 | 77.5 | 97.5 | 98 | 92.5 | 100 | 82.5 | 97.5 | 90 | 100 | 100 | 77.5 | 70 | 90 | 100 | 100 | 65 | 85 | 97.5 | 98.5 | pest or weed control at 560 g/ha ([2]; 168 h, 7 DAA): 80%; pest or weed control at 560 g/ha ([3]; 168 h, 7 DAA): 85%; pest or weed control at 560 g/ha ([4]; 168 h, 7 DAA): 80%; pest or weed control at 560 g/ha ([5]; 168 h, 7 DAA): 82.5%; pest or weed control at 560 g/ha ([5]; 504 h, 21 DAA): 100%; pest or weed control at 280 g/ha ([6]; 168 h, 7 DAA): 74.5%; pest or weed control at 560 g/ha ([6]; 168 h, 7 DAA): 82.5%; pest or weed control at 280 g/ha ([6]; 336 h, 14 DAA): 88%; pest or weed control at 560 g/ha ([6]; 336 h, 14 DAA): 95.6%; pest or weed control at 280 g/ha ([6]; 504 h, 21 DAA): 91.7%; pest or weed control at 560 g/ha ([6]; 504 h, 21 DAA): 98%; pest or weed control at 280 g/ha ([7]; 168 h, 7 DAA): 70%; pest or weed control at 560 g/ha ([7]; 168 h, 7 DAA): 85%; pest or weed control at 280 g/ha ([7]; 336 h, 14 DAA): 90%; pest or weed control at 560 g/ha ([7]; 336 h, 14 DAA): 93.5%; pest or weed control at 280 g/ha ([7]; 504 h, 21 DAA): 67.5%; pest or weed control at 560 g/ha ([7]; 504 h, 21 DAA): 90%
